Consider 15 compounds from paper PMC5722265, “Leishmanicidal compounds of Nectria pseudotrichia, an endophytic fungus isolated from the plant Caesalpinia echinata (Brazilwood)” (Memórias do Instituto Oswaldo Cruz, 2018).

One may read the pIC50 as the negative decadic logarithm of the IC50, by convention in mol/L.

Data set [1] relates to amastigote forms of L. (V.) braziliensis strain MHOM/BR/75/M2903. Details: method as in de Morais-Teixeira et al. 2014. Conditions: different time periods of drug exposure (three, five, and seven days); ref de Morais-Teixeira et al. 2014; cited from earlier work.
For data set [2], the system named is Leishmania promastigotes and intracellular amastigotes in macrophages. Further details: method as in Roy et al. (2014). The following applies: ref Roy et al. (2014); cited from earlier work.
A further data set relates to THP-1 cells. The data set can be described thus: Toxicity on host THP-1 macrophages, MTT. The data set is classed as cell-based. The following applies: for pIC50: Homo sapiens, read-out: THP-1 IC50; for toxicity to THP-1 cells (in words): concentration range tested. As for the experimental part:
To assess toxicity of the compounds on the host cells, THP-1 macrophages were seeded in 96-well plates at a density of 2 × 10^5 cells per well, differentiated in the presence of 20 ng/mL phorbol myristate for 72 h at 37°C, and treated with 1.5-200.0 µg/mL of the compounds or 1.5-200.0 μM of Amphotericin B. After 72 h treatment with compounds, cell death was estimated using MTT, which is metabolised by viable cells resulting in a purple product that can be quantified using a spectrophotometer (absorbance at 570 nm). The results were calculated from the absorbance measurements using the percentage of cell death in relation to the untreated cell controls.

In data set [3] the test system is intracellular amastigote forms of Leishmania (Viannia) braziliensis. The data set is described as follows: Antileishmanial assay on intracellular amastigotes of L. (V.) braziliensis LUC (firefly luciferase reporter) in THP-1 macrophages. Type of data set: cell-based. The following applies: for pIC50: Leishmania braziliensis, intracellular amastigotes in THP-1 macrophages, luciferase activity, 72 h; for activity against amastigote forms of L. (V.) braziliensis (in words): L. (V.) braziliensis expressing firefly luciferase. As for the experimental part: Assays with L. (V.) braziliensis - L. (V.) braziliensis (strain MHOM/BR/1994/H3227) promastigotes were maintained in minimum essential culture medium (α-MEM) (Gibco/Brl, Grand Island, NY, USA) supplemented with 10% (v/v) heat inactivated foetal bovine serum (FBS, Cultilab, Campinas, SP, Brazil), […] kanamycin, […] ampicillin, 2 mm L-glutamine, 5 mg/mL hemin, and 5 mm biopterin (Sigma-Aldrich, St. Louis, USA), at pH 7.0 and incubated at 25°C.
For this assay, we used L. (V.) braziliensis LUC expressing firefly luciferase as a reporter gene. The transfection was performed as previously described ([Roy et al. 2000]). Human monocyte-derived macrophage cell line, THP-1, was maintained in RPMI 1640 medium supplemented with 10% FBS and differentiated in the presence of 20 ng/mL phorbol myristate for 72 h at 37°C. Cells were infected with L. (V.) braziliensis LUC promastigotes at a parasite/macrophage ratio of 10:1 for 3 h in a white walled 96-well tissue culture plate. Non-internalised parasites were removed by five washes with HEPES/NaCl buffer (20 mm HEPES, 0.15 M NaCl, 10 mm glucose, pH 7.2). The infected cells were then treated with 1.5-200.0 µg/mL of sample-tests and 0.006-0.8 µM of amphotericin B (positive control). After 72 h, RPMI was aspirated and luciferase activity was assessed by adding 20 µL reconstituted One-Glo™ Luciferase Assay system solution as enzyme substrate, following the manufacturer's instructions (Promega, Madison, WI, USA). Luciferase activity was measured by luminescence detection in a SpectraMax M5 luminometer (Molecular Devices, Sunnyvale, CA, USA) using 1 s integration/well. Non-infected THP-1 macrophages were used as signal background while non-treated infected THP-1 macrophages were used as control for growth comparison. Antileishmanial activity was expressed as the concentration required to inhibit 50% of parasite growth, as calculated by sigmoidal regression analyses using GraphPad Prism (Version 6.0c, GraphPad Software Inc., La Jolla, CA, USA).
Background: In a reporter assay the amount or activity of a reporter protein is the signal.

For a further data set, the system named is Vero cells. The data set is described as follows: Cytotoxicity assay using Vero cells, MTT. Type of data set: cell-based, African green monkey. The following applies: for pIC50: Chlorocebus sabaeus, Vero, 72 h, read-out: Vero IC50; for toxicity to Vero cells (in words): concentration range tested; for selectivity index (SI): IC50 Vero cells/IC50 L. (V.) braziliensis. The protocol:
Cytotoxicity assay using Vero cells - African green monkey kidney cells (Vero) were used as model of normal cells and were provided by Erna Kroon (Federal University of Minas Gerais, Brazil). The cells were maintained in DMEM medium (Sigma-Aldrich), containing 5% FBS (Gibco/Brl), enriched with 1% antibiotic solution (100 IU/mL penicillin and 100 µg/mL streptomycin, Gibco/Brl). Vero cells were inoculated in 96 well plates at 1 × 10^4 cells/well and the plates incubated for 24 h at 37°C. The samples and amphotericin B (positive control) were dissolved in DMSO (Sigma-Aldrich). […] All cell cultures were incubated in a 5% CO2/95% humidified air atmosphere at 37°C for 72 h. Wells with 0.5% v/v DMSO were used as a negative control. All medium and reagents used in the assays were endotoxin free. Cell viability was estimated by measuring the mitochondrial reduction of MTT ([Monks et al. 1991]). The samples were tested in triplicate in two independent experiments. The results were expressed as percentage of viability in relation to the negative control (DMSO, 0.5% v/v), calculated as follows: percentage of cell viability (%) = [(treated mean OD / negative control) x 100] and obtained from two independent experiments performed in triplicate. The IC50 values were calculated by non-linear regression using GraphPad Prism® Version 5.01 software. The selective index (SI) was calculated by dividing IC50 Vero cells/IC50 L. (V.) braziliensis.

Another data set has as its system tumour xenographs. Further details: method as in Rahier et al. (2015). Conditions: ref Rahier et al. (2015); cited from earlier work.
Details of data set [4]: method as in DrugBank Database, DrugBank Version 5.0. The following applies: Experimental property; ref DrugBank Database, DrugBank Version 5.0; cited from earlier work.
Data set [5] relates to BC-1 human breast cancer cells. Details: method as in Anderson et al. 1985. Conditions: ref Anderson et al. 1985; cited from earlier work.
In data set [6] the test system is Plasmodium falciparum (3D7). Details: method as in Calcul et al. 2013. The following applies: at 25 nM; ref Calcul et al. 2013; cited from earlier work.
Another data set concerns KB cells. Details: method as in Anderson et al. 1985. The following applies: human mouth epidermoid carcinoma; ref Anderson et al. 1985; cited from earlier work.
For another data set, the system named is A549 cells. Further details: method as in Calcul et al. 2013. The following applies: at 25 nM; ref Calcul et al. 2013; cited from earlier work.
Data set [7] has as its system L. amazonensis promastigotes. Further details: method as in Brissow et al. 2017. The following applies: ref Brissow et al. 2017; cited from earlier work.

pIC50: −log10 of the molar value. In brackets after ≈: the same amount, converted by molar mass. Where two headings read alike, the source gives them in different places. A value given as a limit tells only on which side of the number the result lay.

Regarding `CC[C@H]1OC(=O)[C@H](C)[C@@H](O[C@H]2C[C@@](C)(OC)[C@@H](O)[C@H](C)O2)[C@H](C)[C@@H](O[C@@H]2O[C@H](C)C[C@H](N(C)C)[C@H]2O)[C@](C)(O)C[C@@H](C)CN(C)[C@H](C)[C@@H](O)[C@]1(C)O` [azithromycin], the pIC50 in [1] is 5.24.
As to `C=C1[C@@H](C)[C@H]2[C@H](Cc3ccccc3)NC(=O)[C@]23[C@H](OC(C)=O)/C=C/[C@@](C)(O)C(=O)[C@@H](C)C/C=C/[C@H]3[C@@H]1O` [Compound 7, (+)-cytochalasin D], the “effect on Leishmania attachment and intracellular amastigote load in macrophages (in words)” value in data set [2] is “reduce the attachment of Leishmania promastigotes and the intracellular amastigote load”. For the same compound, the pIC50 was below 3.70 with THP-1 cells (THP-1, 72 h); 4.14 in data set [3]; below 3.70 in the data set on Vero cells.
On to `CC(C)[C@H]1CC[C@@]2(CO2)[C@H]2C(=O)OCC(C(=O)O)=C[C@H]12` [heptelidic acid], for which, in the data set with tumour xenographs, the “activity in vivo (in words)” value is “very modest activity in vivo”.
For the compound `CC(=O)OCCCCC/C=C(/C(=O)O)[C@H](C)C(=O)O` [Compound 2, (+)-6′-acetoxy-piliformic acid], the pIC50 with THP-1 cells (THP-1, MTT, 72 h) is below 3.70; in data set [3], 4.55; in the data set on Vero cells (MTT), below 3.70. Also, the “toxicity to THP-1 cells (in words)” value in the data set with THP-1 cells (MTT) is on record as “low toxicity”. Moreover, the “toxicity to Vero cells (in words)” value in the data set on Vero cells (MTT) is listed as “low toxicity”.
Take `C[C@@H]1[C@H](O)[C@@H](C)/C=C/C=C/C=C/C=C/C=C/C=C/C=C/[C@H](O[C@@H]2O[C@H](C)[C@@H](O)[C@H](N)[C@@H]2O)C[C@@H]2O[C@](O)(C[C@@H](O)C[C@@H](O)[C@H](O)CC[C@@H](O)C[C@@H](O)CC(=O)O[C@H]1C)C[C@H](O)[C@H]2C(=O)O` [Amphotericin B, reference compound]: the pIC50 is 4.92 in the data set on THP-1 cells (THP-1, MTT, 72 h); 6.92 in data set [3]; 4.74 with Vero cells (MTT); 7.22 to 7.70 in [1].
As to `CCCCCCCCCCCCCCCCOP(=O)([O-])OCC[N+](C)(C)C` [miltefosine], in data set [1], the pIC50 is 5.27 to 6.10.
With `N=C(N)c1ccc(OCCCCCOc2ccc(C(=N)N)cc2)cc1` [Pentamidine, pentamidine], the “Log P [E]” value in data set [4] is given as 4.
Regarding `NC[C@@H]1O[C@H](O[C@H]2[C@@H](O)[C@H](O[C@@H]3[C@@H](O)[C@H](N)C[C@H](N)[C@H]3O[C@H]3O[C@H](CO)[C@@H](O)[C@H](O)[C@H]3N)O[C@@H]2CO)[C@H](N)[C@@H](O)[C@@H]1O` [paromomycin], in data set [1], the pIC50 was 3.46 to 3.63.
Consider `CCCCC/C=C(/C(=O)O)[C@H](C)C(=O)O` [Compound 4, (+)-piliformic acid], for which the “IC50 BC-1 human breast cancer cells” value in [5] is given as 5 µg/mL (≈ 23.3 µM). Further, the pIC50 in the data set on THP-1 cells (THP-1, MTT, 72 h) was below 3.70; in data set [3] it was 4.11; in the data set with Vero cells (MTT), below 3.70. Also, the “activity against Plasmodium falciparum (3D7) (in words)” value in data set [6] was “inactive”. The “IC50 KB cells” value in the data set with KB cells is reported as 13 µg/mL (≈ 60.7 µM). In the data set on Vero cells, the “selectivity index (SI)” value is given as 2.5. Further, the “activity against A549 cells (in words)” value in the data set with A549 cells was “inactive”.
Take Meglumine antimoniate: the pIC50 in data set [1] was 3.48 to 3.75.
Regarding `CC(=O)O[C@@]1(CO)CC[C@H](C(C)C)[C@H]2C=C(C(=O)O)COC(=O)[C@@H]21` [Compound 1, (+)-(5aS,6R,9S,9aS)-9-(acetyloxy)-9-(hydroxymethyl)-1-oxo-6-(propan-2-yl)-1,3,5a,6,7,8,9,9a-octahydro-2-benzoxepine-4-carboxylic acid], the pIC50 is below 3.70 in the data set on THP-1 cells (THP-1, MTT, 72 h); 4.67 in data set [3]; below 3.70 with Vero cells (MTT). Further, the “toxicity to THP-1 cells (in words)” value in the data set with THP-1 cells (MTT) is “low toxicity”. In addition, the “activity against amastigote forms of L. (V.) braziliensis (in words)” value (from here on “activity against amastigote forms”) in data set [3] was “active”. Besides, the “selectivity index (SI)” value in the data set on Vero cells is recorded as 9.3. In addition, the “toxicity to Vero cells (in words)” value with Vero cells (MTT) is given as “low toxicity”.
Take `CC(C)C1CCC2(O)COC(=O)C2C1C=C(CO)C(=O)O` (stereo not shown) [Compound 5, hydroheptelidic acid]: the pIC50 in the data set on THP-1 cells (THP-1, MTT, 72 h) was below 3.70; in [3], 4.61; in the data set on Vero cells (MTT), below 3.70. Moreover, in the data set with THP-1 cells (MTT), the “toxicity to THP-1 cells (in words)” value was “low toxicity”. Besides, in data set [3], the “activity against amastigote forms” value is recorded as “showed activity”. Further, the “toxicity to Vero cells (in words)” value in the data set on Vero cells (MTT) is “low toxicity”.
For the compound `C=CCCC/C=C(/C(=O)O)[C@H](C)C(=O)O` [Compound 3], the pIC50 with THP-1 cells (THP-1, MTT, 72 h) is below 3.70; in data set [3] it was below 3.70; in the data set on Vero cells (MTT), below 3.70. Further, the “activity against amastigote forms” value in data set [3] is on record as “not active”.
Turning to 18-des-hydroxy cytochalasin H, the “IC50, viability of L. amazonensis promastigotes” value in data set [7] was 9.2 µg/mL.
As to `CC(C)[C@H]1CC[C@H]2COC(=O)[C@H]2[C@@H]1/C=C(\CO)C(=O)O` [Compound 6, xylaric acid D], the pIC50 with THP-1 cells (THP-1, MTT, 72 h) was below 3.70; in [3], below 3.70; in the data set with Vero cells (MTT) it was below 3.70. The “activity against amastigote forms” value in data set [3] is recorded as “activity against L. (V.) braziliensis was lost”.
